≈ marks a conversion by molar mass, not a printed value.
Assays:
Apis mellifera = conditions: acute, mortality
Bibionidae = conditions: chronic/long-term
Colinus virginianus = conditions: acute; oral; diet; mortality
Daphnia magna = conditions: chronic/long-term; duration: 21 days; other
Lepomis macrochirus = conditions: acute; duration: 96 hours; mortality
Oncorhynchus mykiss = conditions: chronic/long-term; duration: 21 days
Typhlodromus pyri = conditions: not reported; other
Aphidius rhopalosiphi = assay: LR50; higher = less toxic; conditions: not reported; other

## Cc1cc(C2CC2)nc(Nc2ccccc2)n1 [Cyprodinil]
Anas platyrhynchos; acute, oral, unspecified, mortality
  LD50: > 500 mg/kg
Anas platyrhynchos; reproductive
  NOEC: 64 mg/kg
Apis mellifera; duration: 48 hours, dermal
  LD50: > 784 µg/piece
Apis mellifera; oral, unspecified
  LD50: > 112 µg/piece
Bibionidae; duration: 27 days, other
  NOEC: 80 mg/kg
Bibionidae; duration: 28 days, no effects
  NOEC: 0.24 mg/L
Colinus virginianus
  LC50: > 743 mg/kg
Daphnia magna
  NOEC: 0.0082 mg/L
Lepomis macrochirus
  LC50: 2.17 µg/mL (≈ 9.63 µM)
Oncorhynchus mykiss
  NOEC: 0.083 mg/L
Rattus norvegicus; acute, oral, mortality
  LD50: > 2000 mg/kg
Rattus norvegicus; chronic, duration: 2 years, M/F, organ weight
  NOAEL: 3 mg/kg-day
Rattus norvegicus; reproduction developmental, organ weight
  NOAEL: 72.7 mg/kg-day
Rattus norvegicus; subchronic, duration: 90 days, histopathology: nonneoplastic
  NOAEL: 3.14 mg/kg-day
Tagia sp.; acute, duration: 14 days, mortality
  LC50: 192 mg/kg
Tagia sp.; chronic/long-term, duration: 56 days, reproduction
  NOEC: 15000 g/ha
Typhlodromus pyri
  LEL: 750 g/ha
Aphidius rhopalosiphi
  LR50: 750 g/ha

— EPA's ToxValDB 9.5 (doi:10.2903/j.efsa.2006.51r)
